# Data reported in publication PMC11356873, “Trolox, Ferulic, Sinapic, and Cinnamic Acid Derivatives of Proline and GABA with Antioxidant and/or Anti-Inflammatory Properties” (Molecules, 2024).
# Columns and labels:
# Bovine serum albumin = Bovine serum albumin (Bos taurus, UniProt P02769); test: Inhibition of fructose/copper-induced oxidative protein glycation; format: biochemical; details: concentration of 1mM, after 72 h of incubation
# Procedure: The purification of the glycation product was based on protein precipitation and washing with trichloroacetic acid (TCA). The concentration of the glycation-modified protein was estimated by fluorescence measurements (excitation of 340 nm, emission of 410 nm). Incubations performed under the same conditions, yet in the absence of fructose, were used as a control. All the fluorescence measurements were expressed relatively to the standard quinine sulphate solution (1 μg/mL).
# soybean lipoxygenase = target: T1, soybean lipoxygenase (Glycine max, UniProt P08170); test: Soybean lipoxygenase inhibition; format: biochemical
# T1 construct: purchased Sigma (St. Louis, MO, USA)
# T1 sequence (P08170 1-839): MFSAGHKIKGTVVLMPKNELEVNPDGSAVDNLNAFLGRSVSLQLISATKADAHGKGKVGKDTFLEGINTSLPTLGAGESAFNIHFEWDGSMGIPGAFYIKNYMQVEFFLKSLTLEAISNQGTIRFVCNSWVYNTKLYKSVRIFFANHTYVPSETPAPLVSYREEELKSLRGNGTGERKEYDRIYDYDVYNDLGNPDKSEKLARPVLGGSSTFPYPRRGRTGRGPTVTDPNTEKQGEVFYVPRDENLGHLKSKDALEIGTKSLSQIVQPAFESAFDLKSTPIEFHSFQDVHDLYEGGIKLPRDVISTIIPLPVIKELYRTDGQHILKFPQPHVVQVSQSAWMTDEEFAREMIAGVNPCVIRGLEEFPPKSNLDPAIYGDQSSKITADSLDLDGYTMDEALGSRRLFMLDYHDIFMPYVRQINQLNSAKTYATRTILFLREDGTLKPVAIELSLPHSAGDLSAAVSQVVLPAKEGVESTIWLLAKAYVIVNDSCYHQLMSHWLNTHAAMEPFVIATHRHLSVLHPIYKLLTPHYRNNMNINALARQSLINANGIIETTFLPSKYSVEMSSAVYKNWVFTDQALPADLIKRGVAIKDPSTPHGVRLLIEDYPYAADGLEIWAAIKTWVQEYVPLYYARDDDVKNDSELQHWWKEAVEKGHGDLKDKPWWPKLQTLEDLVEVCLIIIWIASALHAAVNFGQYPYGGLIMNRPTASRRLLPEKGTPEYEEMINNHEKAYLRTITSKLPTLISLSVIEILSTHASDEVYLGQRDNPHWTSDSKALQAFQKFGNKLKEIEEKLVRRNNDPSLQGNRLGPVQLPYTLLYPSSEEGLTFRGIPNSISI
# Procedure: The reaction mixture (total volume of 3 mL) contained 100 μL of the test compounds (100 μM) or the solvent (absolute ethanol, control), 200 μL of soybean LOX (250 u/mL, in a 0.9% NaCl solution), and 2.6 mL of Tris–HCl buffer with a pH of 9.0. The reaction was initiated by the addition of 100 μL sodium linoleate (100 μM) in the sample mixture (with an equal volume of buffer added to the reference solution). The reaction was followed for 7 min at 28 °C, and the absorbance (234 nm) of a conjugated diene structure was recorded.
# acetylcholinesterase = target: T2, acetylcholinesterase (Rattus norvegicus, UniProt P37136); test: Acetylcholinesterase inhibition (acetylthiocholine hydrolysis, rat brain homogenate); format: biochemical; details: acetylthiocholine 0.5 mM, after 7 min of incubation
# T2 construct: mixed with brain homogenate (20 mg of tissue per mL) from untreated rats; from tissue; host or cells: rat brain homogenate
# T2 sequence (P37136 32-614): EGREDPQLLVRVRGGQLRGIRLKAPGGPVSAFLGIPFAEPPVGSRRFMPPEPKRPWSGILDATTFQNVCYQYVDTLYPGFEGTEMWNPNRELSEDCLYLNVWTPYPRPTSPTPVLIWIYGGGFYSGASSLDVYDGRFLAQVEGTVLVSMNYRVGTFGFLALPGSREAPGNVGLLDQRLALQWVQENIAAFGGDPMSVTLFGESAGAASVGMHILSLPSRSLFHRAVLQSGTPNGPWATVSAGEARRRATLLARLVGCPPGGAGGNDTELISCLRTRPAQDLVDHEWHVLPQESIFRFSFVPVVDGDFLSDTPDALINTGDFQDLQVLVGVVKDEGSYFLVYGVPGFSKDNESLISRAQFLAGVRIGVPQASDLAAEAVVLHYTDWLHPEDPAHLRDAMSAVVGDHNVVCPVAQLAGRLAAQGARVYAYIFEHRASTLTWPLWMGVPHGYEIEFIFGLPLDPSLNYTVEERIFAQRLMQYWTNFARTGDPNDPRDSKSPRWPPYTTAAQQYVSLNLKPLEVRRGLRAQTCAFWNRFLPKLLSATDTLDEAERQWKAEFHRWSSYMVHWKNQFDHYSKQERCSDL
# Procedure: The tested compounds, dissolved in 60% ethanol, were mixed with brain homogenate (20 mg of tissue per mL) from untreated rats (in 0.1 M phosphate buffer with a pH of 8) and acetylthiocholine (0.5 mM).
# [1] = tested on: lipid peroxidation of rat hepatic microsomal membranes; test: Inhibition of lipid peroxidation of rat hepatic microsomal membranes (TBA-reactive material); details: for IC50: read-out: IC50, lipid peroxidation; for IC50 / IC50, lipid peroxidation: rat hepatic microsomal membranes, after 45 min of incubation
# [2] = Interaction with the stable free radical DPPH; details: for % Interaction with DPPH / Time to completion of the reaction with DPPH: DPPH 200 μΜ; for % Interaction with DPPH: after 30 min of incubation; for Interaction with DPPH (in words): 25-200 μΜ
# Procedure: The tested compounds, dissolved in absolute ethanol at final concentrations of 25 up to 200 μΜ, were mixed with DPPH and dissolved in the same solvent at a final concentration of 200 μΜ. The absorbance at 517 nm was recorded every 5 min for 30 min [41].
# Sequence of Bovine serum albumin (P02769 25-607): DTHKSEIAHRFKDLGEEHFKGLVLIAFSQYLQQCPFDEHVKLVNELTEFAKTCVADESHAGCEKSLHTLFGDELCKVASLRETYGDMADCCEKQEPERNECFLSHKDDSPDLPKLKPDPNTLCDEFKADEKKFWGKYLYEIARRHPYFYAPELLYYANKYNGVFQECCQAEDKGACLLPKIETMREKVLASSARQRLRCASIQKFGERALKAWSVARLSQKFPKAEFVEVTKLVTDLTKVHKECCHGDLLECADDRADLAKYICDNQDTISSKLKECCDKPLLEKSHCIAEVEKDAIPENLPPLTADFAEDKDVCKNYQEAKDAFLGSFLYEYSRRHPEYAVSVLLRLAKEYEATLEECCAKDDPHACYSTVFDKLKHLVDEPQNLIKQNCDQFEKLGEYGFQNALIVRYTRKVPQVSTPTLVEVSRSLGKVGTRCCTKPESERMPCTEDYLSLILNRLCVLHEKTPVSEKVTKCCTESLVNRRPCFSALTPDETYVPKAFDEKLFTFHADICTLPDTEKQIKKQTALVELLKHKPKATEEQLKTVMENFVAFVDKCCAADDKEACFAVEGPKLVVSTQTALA
SMILES,% Inhibition of protein glycation (Bovine serum albumin),inhibition at 100 µM (soybean lipoxygenase),IC50 (acetylcholinesterase),IC50 [1],inhibition at 1000 µM (Bovine serum albumin),% Interaction with DPPH ([2]; compound 25 μΜ),% Interaction with DPPH ([2]; compound 50 μΜ),% Interaction with DPPH ([2]; compound 100 μΜ),Time to completion of the reaction with DPPH ([2]; compound 200 μΜ),% Interaction with DPPH ([2]; compound 200 μΜ),"IC50, lipid peroxidation [1]",Interaction with DPPH (in words) [2],"IC50, acetylcholinesterase (acetylcholinesterase)",Activity against lipid peroxidation relative to Trolox ([1]; comparison of IC50 values)
"N=C(N)NN [Aminoguanidine, reference compound]",56%,,,,,,,,,,,,,
"COC(=O)CCCNC(=O)C1CCCN1C(=O)/C=C/c1ccc(O)c(OC)c1 (stereo not shown) [Compound 1c, (E)-methyl 4-(1-(3-(4-hydroxy-3-methoxyphenyl)acryloyl)pyrrolidine-2-carboxamido)butanoate]",,36%,219 µM,839 µM,41%,10%,24%,37%,about 15 min,58%,,,,
"COC(=O)CCCNC(=O)C1CCCN1C(=O)/C=C/c1cc(OC)c(O)c(OC)c1 (stereo not shown) [Compound 2c, (E)-methyl 4-(1-(3-(4-hydroxy-3,5-dimethoxyphenyl)-acryloyl)pyrrolidine-2-carboxamido)-butanoate]",,40%,298 µM,290 µM,48%,17%,36%,64%,completed in the first five minutes,85%,,,,
"COC(=O)CCCNC(=O)C1CCCN1C(=O)/C=C/c1ccc(OC)c(OC)c1 (stereo not shown) [Compound 3c, (E)-methyl 4-(1-(3-(3,4-dimethoxyphenyl)acryloyl)pyrrolidine-2-carboxamido)butanoate]",did not exert any inhibition and -,32%,284 µM,> 1000 µM,,,,,,,could not inhibit lipid peroxidation,could not interact with DPPH at all,,
"COC(=O)CCCNC(=O)C1CCCN1C(=O)/C=C/c1ccccc1 (stereo not shown) [Compound 4c, (E)-methyl 4-(1-cinnamoylpyrrolidine-2-carboxamido)butanoate]",did not exert any inhibition and -,40%,,> 1000 µM,,,,,,,could not inhibit lipid peroxidation,could not interact with DPPH at all,-,
"COC(=O)CCCNC(=O)C1CCCN1C(=O)C1(C)CCc2c(C)c(O)c(C)c(C)c2O1 (stereo not shown) [Compound 5c, Methyl 4-(1-(6-hydroxy-2,5,7,8-tetramethylchroman-2-carbonyl)pyrrolidine-2-carboxamido)-butanoate]",,26%,,8 µM,37%,28%,54%,87%,completed in the first five minutes,89%,,,could not inhibit the enzyme and no inhibitory activity and -,about three times more active than Trolox
"Cc1c(C)c2c(c(C)c1O)CCC(C)(C(=O)O)O2 (stereo not shown) [Trolox, 6-hydroxy-2,5,7,8-tetramethylchroman-2-carboxylic acid]",,,,25 µM,,19%,38%,90%,,92%,,,,
